In PMC8704911, “Novel Combinatorial Strategy Using Thermal Inkjet Bioprinting, Chemotherapy, and Radiation on Human Breast Cancer Cells; an In-Vitro Cell Viability Assessment” (Materials, 2021):
Where two headings read alike, the source gives them in different places.

Experiments:
MCF7 cells = conditions: H2O2 exposure
Protocol: PD 0332991 HCL (Palbociclib) and letrozole (Let; Formula: C17H11N5) were obtained from Fisher Scientific (Waltham, MA, USA). Palbociclib was dissolved in dimethyl sulfoxide (DMSO) to obtain a stock solution of 1 mM. Letrozole was dissolved in DMSO as a 100 mM stock solution. Drugs were serially diluted to determine the cytotoxic concentration 50% (CC50) of the TIB and manually seeded cell samples required to kill 50% of the cell population. Additionally, the CC50 values were determined by using the cytotoxicity values obtained experimentally and the linear interpolator webpage (https://www.johndcook.com/interpolator.html (accessed on 16 December 2021)) as previously described. […] TIB and MS MCF7 cells were incubated for 24 h prior to drug exposure. The same procedure explained in Section 2.5 was followed to determine cell viability.
Approximately, 1.2 × 10^6 cells/mL were resuspended in 1x PBS and used as the bioink cell solution. Modified inkjet cartridges were sonicated in deionized water for 15 min and tested in a previously modified thermal inkjet printer (HP Deskjet 340 Printer, HP, Palo Alto, CA, USA) inside of a biological safety cabinet. Next, 100 µL of cell solution was added to a modified sterile inkjet printer cartridge. The cell solution was bioprinted over one-half of the 96-well plate containing 200 µL of pre-incubated media. Manually seeded cells (MS) were added to the other half of the 96-well plate. Both TIB and MS cells were incubated immediately after with two media changes first at three days post bioprinting and then prior to the drug treatments.
Thermal inkjet bioprinted and manually seeded MCF7 cells were incubated for 5 days post bioprinting with two media changes to allow cells to settle and grow in their new environment. On the 5th day, each well-containing cell was adjusted to 10, 50, 100, and 150 µM PD and 10 µM Let. Letrozole remained constant for all treatments at 10 µM and is referred to as ##.# µM PD-Let. After 12 h post inoculation then at 24-h intervals for five consecutive days, all PD-Let-treated and non-treated cells were exposed to fractionated irradiation (RT) of 2, 4 (twice), and 5 (twice) Gray (Gy) for a cumulative dose of 10 and 20 Gy. Cell media was replenished after cumulative irradiation exposure of 10 Gy.
Cytotoxicity was assessed using an automated live-cell differential nuclear staining (DNS) imaging assay. […] Cytotoxicity was evaluated 12 h post irradiation by using the live-cell differential nuclear staining […] assay utilizing Hoechst 33342 and propidium iodide (PI) stains as previously described. […] Images of cells from individual wells used to quantify their viability profiles were independently captured by using the IN Cell Analyzer 2000 multi-well plate reader bioimager system (GE Healthcare, Systems, Chicago, IL, USA). […]

MDA-MB-231 cells = conditions: H2O2 exposure, RT = 20 Gy (table head; Table 6 title says 10 Gray in 3 fractions)
MCF-10A cells = conditions: H2O2 exposure

OO [H2O2]
Mean % of Live Cells MS (MCF7 cells; RT = 10 gray in 3 fractions): 15.4% | Mean % of Live Cells TIB (MCF7 cells; RT = 10 gray in 3 fractions): 12.1% | Mean % of Live Cells MS (MCF7 cells; RT = 20 gray in 5 fractions): 0.3% | Mean % of Live Cells TIB (MCF7 cells; RT = 20 gray in 5 fractions): 0.0% | Mean % of Live Cells MS (MDA-MB-231 cells): 0.4% | Mean % of Live Cells TIB (MDA-MB-231 cells): 0.0% | Mean % of Live Cells MS (MCF-10A cells; RT = 0): 0.00% | Mean % of Live Cells TIB (MCF-10A cells; RT = 0): 0.0% | Mean % of Live Cells TIB (MCF-10A cells; RT = 10 gray in 3 fractions, first column): 2.9% | Mean % of Live Cells TIB (MCF-10A cells; RT = 10 gray in 3 fractions, second column so headed): 2.8% | Mean % of Live Cells MS (MCF-10A cells; RT = 20 Gray in 5 fractions): 1.9% | Mean % of Live Cells TIB (MCF-10A cells; RT = 20 Gray in 5 fractions): 0.0%
